We go through 79 compounds from patent US20240000806A1, “METHODS AND MATERIALS FOR INHIBITING CB1 ACTIVITY” (University of Pittsburgh - Of the Commonwealth System of …, priority 2020, published 2024).

Molecules are shown by their SMILES.

The target of this assay is CB1 (CNR1) (Homo sapiens, UniProt P21554). Kind of assay: cAMP CNR1 Hunter cell line antagonist assay (CB1 assay). Conditions: antagonist mode, cAMP CNR1 Hunter cells, EC80 agonist; read-out: CB1 assay, Efficacy (IC50). It is filed as cell-based. In short, it runs like this: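 Antagonist mode in CNR1 Hunter cells: compound preincubated 30 min at 37 °C, then EC80 agonist for 30 min at 37 °C. cAMP measured by enzyme-fragment complementation chemiluminescence after lysis (1 h) and detection (3 h, room temperature); IC50 fitted from the dose response.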
CB1 (CNR1), sequence (P21554 whole entry, the tested form may be a part): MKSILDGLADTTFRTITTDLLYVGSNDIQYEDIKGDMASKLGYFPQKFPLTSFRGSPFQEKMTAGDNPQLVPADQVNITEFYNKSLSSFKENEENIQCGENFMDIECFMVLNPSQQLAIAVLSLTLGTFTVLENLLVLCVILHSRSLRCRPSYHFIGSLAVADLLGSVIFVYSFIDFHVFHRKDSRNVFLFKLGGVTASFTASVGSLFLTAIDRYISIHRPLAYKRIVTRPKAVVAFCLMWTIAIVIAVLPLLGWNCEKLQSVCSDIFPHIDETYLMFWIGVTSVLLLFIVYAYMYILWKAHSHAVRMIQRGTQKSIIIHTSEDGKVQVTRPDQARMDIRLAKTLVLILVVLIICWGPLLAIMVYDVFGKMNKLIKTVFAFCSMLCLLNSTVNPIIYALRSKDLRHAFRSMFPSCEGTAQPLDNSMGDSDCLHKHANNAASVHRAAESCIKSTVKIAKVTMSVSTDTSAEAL
The term IC50 denotes the concentration at which inhibition is half-maximal. With `CCC1Oc2cc(S(=O)(=O)NCc3ccc(C(F)(F)F)cc3)c(Br)cc2NC1=O` (stereo not shown) [BC19370], the IC50 was not below 25 µM. Under `N#Cc1ccc(NS(=O)(=O)c2cc3c(cc2Br)NC(=O)CCO3)cc1` [BC19695] stands not below 25 µM.

Regarding `CC1Oc2cc(S(=O)(=O)NC3CCC(O)CC3)c(Br)cc2NC1=O` (stereo not shown) [BC19360], the IC50 was not below 25 µM. In the case of `CCc1ccc(NS(=O)(=O)c2cc(Br)cc3c2OCC(=O)N3)cc1` [BC19179] it was 1 to 25 µM. Under `CCS(=O)(=O)c1cc2c(c(S(=O)(=O)Nc3ccc(OC)cc3)c1)OCC(=O)N2` [BC19438] stands not below 25 µM; under `CCc1ccc(NS(=O)(=O)c2cc(Br)cc3c2OC(CC)C(=O)N3C)cc1` (stereo not shown) [BC19931], not below 25 µM; under `CCS(=O)(=O)c1cc2c(c(S(=O)(=O)Nc3ccccc3)c1)OCC(=O)N2` [BC19437], not below 25 µM. Under `CCc1cccc(NS(=O)(=O)c2cc(Cl)cc3c2OC(C)C(=O)N3)c1` (stereo not shown) [BC19712] stands not below 25 µM. Turning to `CC(C)CNS(=O)(=O)c1cc2c(cc1Br)NC(=O)C(C)O2` (stereo not shown) [BC19218], the IC50 was in the range of 1 to 25 µM. In the case of `CC1Oc2cc(S(=O)(=O)Nc3ccc(F)c(F)c3)c(Br)cc2N(C)C1=O` (stereo not shown) [BC19788] it was 1 to 25 µM. In the case of `CC1Oc2c(cc(Br)cc2S(=O)(=O)NCc2ccc(C(F)(F)F)cc2)NC1=O` (stereo not shown) [BC19365] it was 1 to 25 µM; in that of `CC(C)c1ccc(NS(=O)(=O)c2cc(Br)cc3c2OCCNC3=O)cc1` [BC19605], not below 25 µM. Under `COc1ccc(NS(=O)(=O)c2cc3c(cc2Br)N(C)C(=O)C(C)O3)cc1Cl` (stereo not shown) [BC19919] stands not below 25 µM; under `COc1ccc(NS(=O)(=O)c2cc3c(cc2Br)NC(=O)C(CC(C)C)O3)cc1Cl` (stereo not shown) [BC19780], 1 to 25 µM; under `CC1Oc2c(cc(Br)cc2S(=O)(=O)Nc2ccc(F)cc2)N(C)C1=O` (stereo not shown) [BC19911], not below 25 µM.

With `CCS(=O)(=O)c1cc2c(c(S(=O)(=O)Nc3ccc(F)c(F)c3)c1)OCC(=O)N2` [BC19421], the IC50 is not below 25 µM.

On to `CC1Oc2c(cc(Br)cc2S(=O)(=O)Nc2cccc(F)c2)N(C)C1=O` (stereo not shown) [BC19902], for which the IC50 is not below 25 µM. In the case of `CC1Oc2cc(S(=O)(=O)Nc3ccc(F)cc3F)c(Br)cc2N(C)C1=O` (stereo not shown) [BC19799] it was not below 25 µM; in that of `CC1Oc2c(cc(Br)cc2S(=O)(=O)Nc2ccc(F)cc2Cl)NC1=O` (stereo not shown) [BC19289], not below 25 µM. Under `CCC1Oc2cc(S(=O)(=O)Nc3cccc(Cl)c3)c(Br)cc2NC1=O` (stereo not shown) [BC19221] stands 1 to 25 µM; under `CS(=O)(=O)c1cc2c(c(S(=O)(=O)Nc3ccccc3)c1)OCC(=O)N2` [BC19482], not below 25 µM; under `COc1ccc(NS(=O)(=O)c2cc3c(cc2Br)NC(=O)CO3)cc1Cl` [BC19163], less than 1 µM. In the case of `O=C1COc2c(cc(Br)cc2S(=O)(=O)Nc2ccc(F)cc2F)N1` [BC19178] it was less than 1 µM. `CCC1Oc2c(cc(Cl)cc2S(=O)(=O)Nc2ccc(F)cc2F)NC1=O` (stereo not shown) [BC19748]: the IC50 was not below 25 µM. In the case of `CCC1Oc2cc(S(=O)(=O)Nc3ccc(F)c(F)c3)c(Cl)cc2NC1=O` (stereo not shown) [BC19735] it was not below 25 µM. In the case of `O=C1CCOc2cc(S(=O)(=O)Nc3ccc(Cl)cc3)c(Br)cc2N1` [BC19656] it was not below 25 µM; in that of `CC(C)CC1Oc2c(cc(Br)cc2S(=O)(=O)Nc2ccc(OC(F)(F)F)cc2)NC1=O` (stereo not shown) [BC19757], not below 25 µM; in that of `O=C1COc2c(cc(Br)cc2S(=O)(=O)NCc2ccc(F)cc2F)N1` [BC19386], not below 25 µM. Under `CCc1cccc(NS(=O)(=O)c2cc3c(cc2Br)NC(=O)CCO3)c1` [BC19657] stands not below 25 µM.

As to `CC(C)CC1Oc2cc(S(=O)(=O)Nc3cccc(Cl)c3)c(Br)cc2NC1=O` (stereo not shown) [BC19776], the IC50 is not below 25 µM. Under `CC1Oc2cc(S(=O)(=O)NCc3ccc(C(F)(F)F)cc3)c(Br)cc2NC1=O` (stereo not shown) [BC19358] stands 1 to 25 µM; under `CCc1cccc(NS(=O)(=O)c2cc(Br)cc3c2OC(CC(C)C)C(=O)N3)c1` (stereo not shown) [BC19771], 1 to 25 µM; under `COc1ccc(NS(=O)(=O)c2cc(Br)cc3c2OC(CC(C)C)C(=O)N3)cc1Cl` (stereo not shown) [BC19779], not below 25 µM. On to `CC1Oc2c(cc(Br)cc2S(=O)(=O)NCCc2ccc(OC(F)(F)F)cc2)NC1=O` (stereo not shown) [BC19364], for which the IC50 lay in the range of 1 to 25 µM.

Turning to `Cc1c(Cl)cc2c(c1S(=O)(=O)Nc1ccc(F)c(F)c1)OCC(=O)N2` [BC19489], the IC50 is not below 25 µM.

Consider `Cc1ccc(NS(=O)(=O)c2cc(Br)cc3c2OCCC(=O)N3)cc1Cl` [BC19651], for which the IC50 was not below 25 µM.

As to `O=C1NCCOc2c1cc(Br)cc2S(=O)(=O)Nc1ccc(F)cc1F` [BC19608], the IC50 was not below 25 µM.

As for `CS(=O)(=O)c1cc2c(c(S(=O)(=O)Nc3ccc(OC(F)(F)F)cc3)c1)OCC(=O)N2` [BC19422], the IC50 was not below 25 µM. In the case of `O=C1CCOc2cc(S(=O)(=O)Nc3ccc(OC(F)(F)F)cc3)c(Br)cc2N1` [BC19652] it was not below 25 µM; in that of `CCC1Oc2c(cc(Br)cc2S(=O)(=O)NCc2ccc(C(F)(F)F)cc2)NC1=O` (stereo not shown) [BC19377], not below 25 µM. In the case of `CC1Oc2c(cc(Br)cc2S(=O)(=O)Nc2ccc(F)cc2F)N(C)C1=O` (stereo not shown) [BC19798] it was not below 25 µM; in that of `CC1Oc2cc(S(=O)(=O)Nc3ccc(F)cc3F)c(Cl)cc2NC1=O` (stereo not shown) [BC19709], 1 to 25 µM. With `CC1Oc2cc(S(=O)(=O)Nc3ccc(F)c(F)c3)c(Br)cc2NC1=O` (stereo not shown) [BC19284], the concentration for half-maximal inhibition (IC50) is not below 25 µM.

In the case of `CC1Oc2cc(S(=O)(=O)Nc3ccc(C#N)cc3)c(Br)cc2N(C)C1=O` (stereo not shown) [BC19920], the half-inhibitory concentration (IC50) was 1 to 25 µM. In the case of `CCC1Oc2c(cc(Br)cc2S(=O)(=O)Nc2ccc(OC)cc2)N(C)C1=O` (stereo not shown) [BC19935] it was not below 25 µM; in that of `O=C1CCOc2cc(S(=O)(=O)Nc3ccc(F)cc3Cl)c(Br)cc2N1` [BC19658], not below 25 µM. Take `NS(=O)(=O)c1ccc2c(c1)N1CCCC1C(=O)N2` (stereo not shown) [BC19300]: the half-inhibitory concentration (IC50) is not below 25 µM.

For `CC(C)CC(=O)N1c2cc(S(=O)(=O)N3CCCC3)ccc2NC(=O)C1C` (stereo not shown) [BC19184], the IC50 was in the range of 1 to 25 µM. In the case of `CCS(=O)(=O)c1cc2c(c(S(=O)(=O)Nc3ccc(F)cc3Cl)c1)OCC(=O)N2` [BC19442] it was not below 25 µM. Take `CCC1Oc2cc(S(=O)(=O)Nc3ccc(C)c(F)c3)c(Br)cc2N(C)C1=O` (stereo not shown) [BC19924]: the IC50 lay in the range of 1 to 25 µM. As for `O=C1COc2c(cc(Br)cc2S(=O)(=O)NCc2ccc(C(F)(F)F)cc2)N1` [BC19382], the IC50 fell in the range of 1 to 25 µM.

Consider `CC(C)CC1Oc2cc(S(=O)(=O)Nc3ccc(F)cc3)c(Br)cc2NC1=O` (stereo not shown) [BC19782], for which the IC50 is not below 25 µM.

Turning to `CS(=O)(=O)c1cc2c(c(S(=O)(=O)Nc3cccc(Cl)c3)c1)OCC(=O)N2` [BC19427], the IC50 was not below 25 µM. Under `CC1Oc2cc(S(=O)(=O)NC3CCC(C(C)(C)C)CC3)c(Br)cc2NC1=O` (stereo not shown) [BC19361] stands 1 to 25 µM. In the case of `CC(C)CC1Oc2cc(S(=O)(=O)Nc3ccc(F)cc3F)c(Br)cc2NC1=O` (stereo not shown) [BC19770] it was not below 25 µM. Under `CCc1cccc(NS(=O)(=O)c2cc(Br)cc3c2OC(CC)C(=O)N3C)c1` (stereo not shown) [BC19915] stands 1 to 25 µM; under `CC1Oc2cc(S(=O)(=O)Nc3ccc(OC(F)(F)F)cc3)c(Br)cc2N(C)C1=O` (stereo not shown) [BC19784], not below 25 µM. `CC(C)CC1Oc2cc(S(=O)(=O)Nc3cccc(F)c3)c(Br)cc2NC1=O` (stereo not shown) [BC19774]: the IC50 is not below 25 µM. In the case of `CC1Oc2c(cc(Cl)cc2S(=O)(=O)Nc2ccc(OC(F)(F)F)cc2)NC1=O` (stereo not shown) [BC19394] it was not below 25 µM; in that of `CCC1Oc2c(cc(Br)cc2S(=O)(=O)Nc2ccc(C)c(F)c2)N(C)C1=O` (stereo not shown) [BC19923], not below 25 µM. Turning to `CS(=O)(=O)c1cc2c(c(S(=O)(=O)Nc3ccc(F)cc3)c1)OCC(=O)N2` [BC19430], the IC50 is not below 25 µM. For `COc1ccc(NS(=O)(=O)c2cc(Br)cc3c2OC(C)C(=O)N3C)cc1Cl` (stereo not shown) [BC19909], the IC50 is not below 25 µM. Under `O=C1COc2cc(S(=O)(=O)Nc3ccc(Cl)cc3)c(Cl)cc2N1` [BC19133] stands less than 1 µM; under `CCC1Oc2c(cc(Cl)cc2S(=O)(=O)Nc2ccc(OC)c(Cl)c2)NC1=O` (stereo not shown) [BC19744], not below 25 µM. In the case of `CCS(=O)(=O)c1cc2c(c(S(=O)(=O)Nc3ccc(C(C)C)cc3)c1)OCC(=O)N2` [BC19493] it was not below 25 µM. As for `Cc1ccc(NS(=O)(=O)c2cc3c(cc2Br)N(C)C(=O)C(C)O3)cc1` (stereo not shown) [BC19912], the half-inhibitory concentration (IC50) was not below 25 µM. Under `CC1Oc2cc(S(=O)(=O)NCc3ccc(F)cc3F)c(Br)cc2NC1=O` (stereo not shown) [BC19356] stands not below 25 µM; under `CC(=O)N1CC(=O)Nc2ccc(S(=O)(=O)N3CCCC3)cc21` [BC19295], not below 25 µM. Under `O=C1COc2c(cc(Cl)cc2S(=O)(=O)Nc2ccc(OC(F)(F)F)cc2)N1` [BC19172] stands not below 25 µM. Under `Cc1ccc(Cl)cc1NS(=O)(=O)c1cc(Cl)cc2c1OCC(=O)N2` [BC19170] stands 1 to 25 µM; under `Cc1ccc(NS(=O)(=O)c2cc3c(cc2Cl)NC(=O)C(C)O3)cc1Cl` (stereo not shown) [BC19708], not below 25 µM; under `Cc1ccc(NS(=O)(=O)c2cc(Br)cc3c2OC(C)C(=O)N3C)cc1Cl` (stereo not shown) [BC19796], 1 to 25 µM. As for `CC(C)c1ccc(NS(=O)(=O)c2cc(Cl)cc3c2OCC(=O)N3)cc1` [BC19174], the IC50 is not below 25 µM. In the case of `O=C1COc2c(cc(Cl)cc2S(=O)(=O)Nc2ccccc2)N1` [BC19168] it was 1 to 25 µM; in that of `O=C1CCOc2c(cc(Br)cc2S(=O)(=O)Nc2ccc(OC(F)(F)F)cc2)N1` [BC19648], not below 25 µM; in that of `CCOc1ccc(NS(=O)(=O)c2cc3c(cc2Br)NC(=O)CO3)cc1` [BC19135], 1 to 25 µM. In the case of `CCC1Oc2c(cc(Br)cc2S(=O)(=O)Nc2ccccc2)N(C)C1=O` (stereo not shown) [BC19927] it was not below 25 µM. In the case of `O=C1CCOc2c(cc(Br)cc2S(=O)(=O)Nc2cccc(F)c2)N1` [BC19649] it was not below 25 µM; in that of `CCC1Oc2cc(S(=O)(=O)Nc3cccc(SC)c3)c(Cl)cc2NC1=O` (stereo not shown) [BC19213], not below 25 µM.
